Each structure is given as a SMILES string. Bounds are passed on as bounds.

For data set [1], the system named is MCF7. The data set is described as follows: Antiproliferative activity against human MCF7 cells assessed as reduction in cell viability incubated for 6 days by CellTiter-Glo reagent based luminescence analysis. The following applies: Homo sapiens, MCF7, 144 h.
Data set [2] deals with T1, Estrogen receptor (Homo sapiens, UniProt P03372).
T1 sequence (P03372 whole entry): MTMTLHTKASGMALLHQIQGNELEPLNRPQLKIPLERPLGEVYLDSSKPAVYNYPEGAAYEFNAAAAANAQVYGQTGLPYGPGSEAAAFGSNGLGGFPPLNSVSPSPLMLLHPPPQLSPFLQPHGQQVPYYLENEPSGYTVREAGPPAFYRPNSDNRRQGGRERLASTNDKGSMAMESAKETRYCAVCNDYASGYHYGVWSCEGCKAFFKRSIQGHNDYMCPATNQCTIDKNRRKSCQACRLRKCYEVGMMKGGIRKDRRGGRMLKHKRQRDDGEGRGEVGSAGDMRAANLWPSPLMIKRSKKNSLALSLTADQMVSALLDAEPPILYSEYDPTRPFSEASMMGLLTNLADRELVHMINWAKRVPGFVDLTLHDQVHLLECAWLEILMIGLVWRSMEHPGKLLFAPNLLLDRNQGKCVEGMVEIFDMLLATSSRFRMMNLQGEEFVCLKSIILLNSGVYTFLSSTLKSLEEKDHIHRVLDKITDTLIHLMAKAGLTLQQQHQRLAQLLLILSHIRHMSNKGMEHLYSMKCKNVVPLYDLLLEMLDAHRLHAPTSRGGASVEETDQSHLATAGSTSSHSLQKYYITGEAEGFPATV
The data set is described as follows: Induction of ER-alpha degradation in human MCF7 cells incubated for 24 hrs by In-Cell Western blot analysis. The data set is classed as cell-based.

The target of data set [3] is Voltage-gated inwardly rectifying potassium channel KCNH2 (Homo sapiens, UniProt Q12809). Nature of the data set: Inhibition of hERG expressed in CHO cells assessed as inhibition of channel current by automated Qpatch clamp analysis.
Data set [4] is described as follows: Antagonist activity at ER-alpha Y537S mutant (unknown origin) expressed in human MCF7 cells assessed as inhibition of ER-alpha transcription by immunofluorescence assay.
The subject of data set [5] is MCF7. Nature of the data set: Antiproliferative activity against human MCF7 cells harboring ER-alpha Y537S mutant assessed as inhibition of cell growth.
Data set [6] can be described thus: Estrogenic like activity in Sprague-Dawley rat assessed as increase in ratio of uterine wet weight to body weight at 0.1 mg/kg, po qd for 3 days relative to control. The data set is classed as toxicity, organism-based. To be noted: in vivo, 72 h, time 3 day.
The nature of data set [7]: Toxicity in Sprague-Dawley rat assessed as thickened endometrium in uterus at 0.1 mg/kg, po qd for 3 days by Hematoxylin-Eosin staining based analysis. Type of data set: organism-based. The following applies: in vivo, 72 h, time 3 day.
Data set [8] is described as follows: Antagonist activity at ER-alpha D538G mutant (unknown origin) expressed in human MCF7 cells assessed as inhibition of ER-alpha transcription by immunofluorescence assay.
Data set [9] concerns the target T1, Estrogen receptor. Type of data set: cell-based, HEK293.
Data set [10] is described as follows: Antiproliferative activity against endocrine-resistant human MCF7 Tam1 cells assessed as inhibition of cell growth. The following applies: Tamoxifen-resistant MCF7.

Chain of Voltage-gated inwardly rectifying potassium channel KCNH2 (Q12809 whole entry): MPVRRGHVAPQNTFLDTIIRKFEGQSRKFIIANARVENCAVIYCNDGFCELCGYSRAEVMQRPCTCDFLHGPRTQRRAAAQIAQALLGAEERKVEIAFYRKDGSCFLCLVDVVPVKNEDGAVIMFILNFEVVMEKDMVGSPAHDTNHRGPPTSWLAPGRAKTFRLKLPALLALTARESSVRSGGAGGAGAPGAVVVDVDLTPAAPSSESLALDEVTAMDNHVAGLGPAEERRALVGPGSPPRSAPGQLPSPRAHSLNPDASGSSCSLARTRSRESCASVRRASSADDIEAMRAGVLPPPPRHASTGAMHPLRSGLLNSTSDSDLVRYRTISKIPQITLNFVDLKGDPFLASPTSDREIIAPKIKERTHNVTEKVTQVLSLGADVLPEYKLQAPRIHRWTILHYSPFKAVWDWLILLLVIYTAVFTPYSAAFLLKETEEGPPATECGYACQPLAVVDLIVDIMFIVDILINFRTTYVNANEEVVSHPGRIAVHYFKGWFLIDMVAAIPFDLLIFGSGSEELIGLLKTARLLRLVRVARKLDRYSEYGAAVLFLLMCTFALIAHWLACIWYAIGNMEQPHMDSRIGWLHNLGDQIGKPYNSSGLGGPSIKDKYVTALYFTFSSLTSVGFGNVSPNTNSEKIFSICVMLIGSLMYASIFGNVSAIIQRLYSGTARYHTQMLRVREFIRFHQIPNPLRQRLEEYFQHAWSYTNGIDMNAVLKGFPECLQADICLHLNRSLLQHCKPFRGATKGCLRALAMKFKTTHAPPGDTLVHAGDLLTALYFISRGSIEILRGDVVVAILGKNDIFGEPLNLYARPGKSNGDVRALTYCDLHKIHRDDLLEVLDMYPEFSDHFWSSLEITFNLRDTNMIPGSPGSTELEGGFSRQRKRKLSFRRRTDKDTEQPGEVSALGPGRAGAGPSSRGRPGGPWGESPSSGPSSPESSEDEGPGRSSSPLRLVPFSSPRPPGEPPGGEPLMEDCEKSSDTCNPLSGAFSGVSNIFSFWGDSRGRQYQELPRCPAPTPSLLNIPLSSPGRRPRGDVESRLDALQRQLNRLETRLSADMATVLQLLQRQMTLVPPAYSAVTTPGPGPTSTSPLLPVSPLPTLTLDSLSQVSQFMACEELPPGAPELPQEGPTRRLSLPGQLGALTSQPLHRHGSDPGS

Take `Oc1ccc2c(c1)OC[C@H](c1ccc(F)cc1F)[C@@H]2c1ccc(OC2CN(CCCF)C2)cc1` (racemic): the IC50 in the data set with MCF7 [1] was 7.7 nM. This molecule also yielded a DC50 at Estrogen receptor [2] of 2.8 nM.
For `Oc1ccc2c(c1)OC[C@H](c1ccc(F)cc1F)[C@@H]2c1ccc(NCCN2CC(CF)C2)cc1` (racemic) the same measures were 9.3 nM and 1.7 nM.
With `COc1cc(F)ccc1[C@H]1CSc2cc(O)ccc2[C@H]1c1ccc(NC2CN(CCCF)C2)cc1` (racemic), the results for the IC50 (in the data set with MCF7 [1]; in data set [3]) were 0.9 nM and 22000 nM, respectively.
In the case of `Oc1ccc2c(c1)OCC[C@H](c1ccc(F)cc1F)[C@@H]2c1ccc(OCCN2CC(CF)C2)cc1` (racemic), in the data set on MCF7 [1], the IC50 worked out at 47 nM.
Turning to `COc1ccc([C@H]2COc3cc(O)ccc3[C@H]2c2ccc(OCCN3CC(CF)C3)cc2)cn1` (racemic), the IC50 in the data set with MCF7 [1] was found to be 0.86 nM.
Same read-out and setting: next, `CC1(C)C[C@H](c2ccc(F)cc2F)[C@H](c2ccc(OCCN3CC(CF)C3)cc2)c2ccc(O)cc21` (racemic): 8.8 nM.
For `Cn1cc([C@H]2COc3cc(O)ccc3[C@H]2c2ccc(OCCN3CC(CF)C3)cc2)cn1` (racemic), the IC50 in the data set with MCF7 [1] was found to be 38 nM. This molecule displayed a DC50 at Estrogen receptor [2] of 98 nM.
For `CS(=O)(=O)N1CCC([C@H]2COc3cc(O)ccc3[C@H]2c2ccc(OCCN3CC(CF)C3)cc2)CC1` (racemic) the same measures were 6.2 nM and 8.8 nM.
In the same order, the values of `FCC1CN(CCOc2ccc([C@@H]3c4ccc5[nH]ncc5c4SC[C@@H]3c3cc(F)c(F)cc3F)cc2)C1` (racemic) are 5.8 nM and 6.6 nM.
`Cc1cc(F)ccc1[C@H]1CSc2cc(O)ccc2[C@H]1c1ccc(OCCN2CC(CF)C2)cc1` (racemic): the IC50 with MCF7 [1] came to 0.8 nM.
Turning to `COc1cc(F)ccc1[C@H]1CSc2cc(C(=O)O)ccc2[C@H]1c1ccc(OCCN2CC(CF)C2)cc1` (racemic), the IC50 in the data set on MCF7 [1] worked out at 1.7 nM. The molecule further gave a DC50 on Estrogen receptor [2] of 9.6 nM.
Take `Oc1ccc2c(c1)OC[C@H](c1ccc(F)cc1F)[C@@H]2c1ccc(OCCN2CC(CF)C2)cc1F` (racemic): the IC50 in data set [3] stood at 5400 nM.
Regarding `N#Cc1cc(F)ccc1[C@H]1COc2cc(O)ccc2[C@H]1c1ccc(OCCN2CC(CF)C2)cc1` (racemic), the IC50 with MCF7 [1] worked out at 4.9 nM.
As to `COc1cc([C@@H]2c3ccc(O)cc3OC[C@@H]2c2ccc(F)cc2F)ccc1OCCN1CC(CF)C1` (racemic), the 50% inhibitory concentration (IC50) with MCF7 [1] worked out at 4.8 nM. This molecule registered a DC50 on Estrogen receptor [2] of 4.5 nM.
Regarding `Oc1ccc2c(c1)OC[C@H](c1ccc(F)cc1F)[C@@H]2c1ccc(O[C@H]2CCN(CCCF)C2)cc1` (racemic), the IC50 in the data set with MCF7 [1] is 7.7 nM.
The same measure, in the same setting: next, `O=C(CN1CC(CF)C1)Nc1ccc([C@@H]2c3ccc(O)cc3OC[C@@H]2c2ccc(F)cc2F)cc1` (racemic): 243 nM.
Consider `COc1cc(F)ccc1[C@H]1CS(=O)(=O)c2cc(O)ccc2[C@H]1c1ccc(OCCN2CC(CF)C2)cc1` (racemic), for which the IC50 with MCF7 [1] was 1.6 nM; in data set [3] it was > 40000 nM.
Take `O=C(O)c1ccc2c(c1)CCCC(c1ccc(Cl)cc1Cl)=C2c1ccc(O[C@H]2CCN(CCCF)C2)cc1` [AMCENESTRANT]: the IC50 in the data set with MCF7 [1] was determined as 3.9 nM; in data set [4], 57.5 nM.
Consider `C[C@@H]1Cc2c(ccc3[nH]ncc23)[C@@H](c2ccc(NC3CN(CCCF)C3)cn2)N1CC(F)(F)F` [CAMIZESTRANT], for which the IC50 with MCF7 [1] was determined as 0.68 nM; with MCF7 [5], 21.2 nM.
As to `C#C[C@]1(O)CC[C@H]2[C@@H]3CCc4cc(O)ccc4[C@H]3CC[C@@]21C` [ETHINYL ESTRADIOL], the “fold change (FC)” value in data set [6] was found to be 3. In addition, the Activity result in data set [7] is given as “Toxic”.
For the molecule `C[C@]12CC[C@@H]3c4ccc(O)cc4C[C@@H](CCCCCCCCC[S+]([O-])CCCC(F)(F)C(F)(F)F)[C@H]3[C@@H]1CC[C@@H]2O` (some centres not stated) [FULVESTRANT], the IC50 came out at 13.3 nM in data set [4] and 15.3 nM in [8].
Regarding `C[C@@H]1Cc2c([nH]c3ccccc23)[C@@H](c2c(F)cc(NC3CN(CCCF)C3)cc2F)N1CC(F)(F)CO` [GIREDESTRANT], the IC50 with MCF7 [1] came to 0.2 nM; against Estrogen receptor [9], 0.43 nM; in data set [10], 1.22 nM; in the data set with MCF7 [5], 6.77 nM. The molecule further came in with a DC50 at Estrogen receptor [2] of 0.3 nM.
With `O=C1CC[C@H](N2Cc3cc(N4CCN(CC5CCN(c6ccc([C@@H]7c8ccc(O)cc8CC[C@@H]7c7ccccc7)cc6)CC5)CC4)ccc3C2=O)C(=O)N1` [VEPDEGESTRANT], the 50% inhibitory concentration (IC50) amounted to 2.7 nM with MCF7 [1], 2.12 nM in data set [10] and 133 nM with MCF7 [5].
